Source: PMC11550293, “Biochemical characterization of a recombinant laccase from Halalkalibacterium halodurans C-125 and its application in the biotransformation of organic compounds” (Biotechnology Letters, 2024)

What was measured:
rLac-HhC125 = molecular target: T1, rLac-HhC125 (Halalkalibacterium halodurans, UniProt Q9KB49); experiment: biochemical; conditions: read-out: Residual activity (%) ± SD (0 min)
T1 construct: gene BH2082

purified protein = substrate: COc1cc(C=NN=Cc2cc(OC)c(O)c(OC)c2)cc(OC)c1O; experiment: purified protein; assay type: biochemical, Halalkalibacterium halodurans; conditions: 100 mM Tris-HCl pH 8, 2 mM CuSO4, enzyme pre-treated 50 °C 20 min, partially purified enzyme

| Molecule | remaining activity at 1000 µM (rLac-HhC125) [%] | Km (purified protein) [µM] |
| --- | --- | --- |
| NC(=S)Nc1ccccc1 [Phenylthiourea] | 3.9 ± 3.8 | – |
| rLac-HhC125 (Halalkalibacterium halodurans C-125) (protein, native signal peptide removed (forward primer encodes MDDHSEMD...), pET28-a(+) BamHI/HindIII, E. coli BL21(DE3); partially purified by SEC; theoretical monomer 54 kDa; monomer and possibly dimer) DDHSEMDHGNNQQDEQNEGTFEDGKKVFNLEVTETHWMFNDEVMMDAWTYNGTLPGQEIRVQEGDEVVINVKNSLNVPTALHLHGFPVPNEMDGVPGVTQNAIMPGEEFTYEYQANVPGTYWYHSHQDGATQVDRGLYGVFIVEPVDPESYDTDVAIVIDEFASMGMGMGMDHSTMDHGDMEHDGNDDMSHSEMMNEMYDTMVINGKADPQIESINVVEGNRVKLRFVNAGLFTQVVSIPEHSFKITHYDGQPVNEPDVLQDTAFRIAPAERYDLEIIMDNPGAWGIQVFAEENQERLQALIPLVYEEYEDEELQTVDSISSFFDLTTYGIPKELDIGDITKEYDMLLGSDDGGDTFTINGKKFPNHEIYDVEEGDMVKFTIINDTDFDHPMHLHGDFFHVISKGGKAIQGSPVLKDTLNVRPGETYEIVFEAKNPGNWMFHCHEFHHASGGMVAEIHYEGFELPFTPDPNIPNMPE | – | 2.48 |
